Experiments:
[1] = (§1) The drug is tested on Z-030 corresponding to mouse gut metagenome with ENA study accession number: PRJEB37062 and ENA sample accession number: ERS12561829 for biotransformation under anaerobic condition. The drug concentrations were measured over 9 timepoints collected between 0 and 24 hours of incubation by liquid-chromatography-coupled mass spectrometry (LC–MS); conditions: 2 µM
[2] = human gut metagenome, 24 h, 2 µM
[3] = as §1, with “Z-003” for “Z-030”, “pig” for “mouse”, “ERS12561803” for “ERS12561829”; conditions: 2 µM
[4] = human gut metagenome, 24 h, 2 µM; remark: listed apart in the source
[5] = human gut metagenome, 24 h, 2 µM; remark: listed apart in the source
[6] = as §1, with “Z-027” for “Z-030”, “to” for “to mouse gut”, “ERS12561826” for “ERS12561829”; conditions: 2 µM
[7] = as §1, with “Z-016” for “Z-030”, “ERS12561815” for “ERS12561829”; conditions: 2 µM
[8] = as §1, with “Z-014” for “Z-030”, “rat” for “mouse”, “ERS12561814” for “ERS12561829”; conditions: 2 µM
[9] = as §1, with “Z-004” for “Z-030”, “to” for “to mouse gut”, “ERS12561804” for “ERS12561829”; conditions: 2 µM
[10] = as §1, with “Z-009” for “Z-030”, “pig” for “mouse”, “ERS12561809” for “ERS12561829”; conditions: 2 µM
[11] = human gut metagenome, 24 h, 2 µM; remark: listed apart in the source
[12] = as §1, with “Z-023” for “Z-030”, “to” for “to mouse gut”, “ERS12561822” for “ERS12561829”; conditions: 2 µM
[13] = human gut metagenome, 24 h, 2 µM; remark: listed apart in the source
[14] = human gut metagenome, 24 h, 2 µM; remark: listed apart in the source
[15] = human gut metagenome, 24 h, 2 µM; remark: listed apart in the source
[16] = as §1, with “WLS-086” for “Z-030”, “human” for “mouse”, “ERS12561752” for “ERS12561829”; conditions: 2 µM
[17] = human gut metagenome, 24 h, 2 µM; remark: listed apart in the source
[18] = human gut metagenome, 24 h, 2 µM; remark: listed apart in the source
[19] = as §1, with “WLS-370” for “Z-030”, “human” for “mouse”, “ERS12561793” for “ERS12561829”; conditions: 2 µM
[20] = as §1, with “Z-001” for “Z-030”, “ERS12561801” for “ERS12561829”; conditions: 2 µM
Note: call rule not given here.

## CNS(=O)(=O)Cc1ccc2[nH]cc(CCN(C)C)c2c1.O=C(O)CCC(=O)O [SUMATRIPTAN SUCCINATE]
[1]
  Bacterial Biotransformation: Compound NOT metabolized
[2]
  Bacterial Biotransformation: Compound NOT metabolized
[3]
  Bacterial Biotransformation: Compound metabolized
[4]
  Bacterial Biotransformation: Compound metabolized
[5]
  Bacterial Biotransformation: Compound metabolized
[6]
  Bacterial Biotransformation: Compound NOT metabolized
[7]
  Bacterial Biotransformation: Compound NOT metabolized
[8]
  Bacterial Biotransformation: Compound NOT metabolized
[9]
  Bacterial Biotransformation: Compound NOT metabolized
[10]
  Bacterial Biotransformation: Compound NOT metabolized
[11]
  Bacterial Biotransformation: Compound metabolized
[12]
  Bacterial Biotransformation: Compound NOT metabolized
[13]
  Bacterial Biotransformation: Compound NOT metabolized
[14]
  Bacterial Biotransformation: Compound NOT metabolized
[15]
  Bacterial Biotransformation: Compound NOT metabolized
[16]
  Bacterial Biotransformation: Compound metabolized
[17]
  Bacterial Biotransformation: Compound NOT metabolized
[18]
  Bacterial Biotransformation: Compound metabolized
[19]
  Bacterial Biotransformation: Compound NOT metabolized
[20]
  Bacterial Biotransformation: Compound metabolized

## CC(C)(C#N)c1cc(Cn2cncn2)cc(C(C)(C)C#N)c1 [ANASTROZOLE]
[1]
  Bacterial Biotransformation: Compound NOT metabolized
[2]
  Bacterial Biotransformation: Compound NOT metabolized
[3]
  Bacterial Biotransformation: Compound metabolized
[4]
  Bacterial Biotransformation: Compound metabolized
[5]
  Bacterial Biotransformation: Compound metabolized
[6]
  Bacterial Biotransformation: Compound NOT metabolized
[7]
  Bacterial Biotransformation: Compound NOT metabolized
[8]
  Bacterial Biotransformation: Compound NOT metabolized
[9]
  Bacterial Biotransformation: Compound NOT metabolized
[10]
  Bacterial Biotransformation: Compound metabolized
[11]
  Bacterial Biotransformation: Compound metabolized
[12]
  Bacterial Biotransformation: Compound metabolized
[13]
  Bacterial Biotransformation: Compound NOT metabolized
[14]
  Bacterial Biotransformation: Compound NOT metabolized
[15]
  Bacterial Biotransformation: Compound metabolized
[16]
  Bacterial Biotransformation: Compound NOT metabolized
[17]
  Bacterial Biotransformation: Compound NOT metabolized
[18]
  Bacterial Biotransformation: Compound metabolized
[19]
  Bacterial Biotransformation: Compound metabolized
[20]
  Bacterial Biotransformation: Compound NOT metabolized

## Cc1ccc(S(=O)(=O)NC(=O)NN2CC3CCCC3C2)cc1 (stereo not given) [GLICLAZIDE]
[1]
  Bacterial Biotransformation: Compound NOT metabolized
[2]
  Bacterial Biotransformation: Compound metabolized
[3]
  Bacterial Biotransformation: Compound metabolized
[4]
  Bacterial Biotransformation: Compound metabolized
[5]
  Bacterial Biotransformation: Compound metabolized
[6]
  Bacterial Biotransformation: Compound metabolized
[7]
  Bacterial Biotransformation: Compound metabolized
[8]
  Bacterial Biotransformation: Compound NOT metabolized
[9]
  Bacterial Biotransformation: Compound NOT metabolized
[10]
  Bacterial Biotransformation: Compound metabolized
[11]
  Bacterial Biotransformation: Compound metabolized
[12]
  Bacterial Biotransformation: Compound metabolized
[13]
  Bacterial Biotransformation: Compound metabolized
[14]
  Bacterial Biotransformation: Compound metabolized
[15]
  Bacterial Biotransformation: Compound metabolized
[16]
  Bacterial Biotransformation: Compound metabolized
[17]
  Bacterial Biotransformation: Compound metabolized
[18]
  Bacterial Biotransformation: Compound metabolized
[19]
  Bacterial Biotransformation: Compound metabolized
[20]
  Bacterial Biotransformation: Compound metabolized

## CCN(CC)CCOCCOC(=O)C1(c2ccccc2)CCCC1.O=C(O)CC(O)(CC(=O)O)C(=O)O [CARBETAPENTANE CITRATE]
[1]
  Bacterial Biotransformation: Compound NOT metabolized
[2]
  Bacterial Biotransformation: Compound NOT metabolized
[3]
  Bacterial Biotransformation: Compound metabolized
[4]
  Bacterial Biotransformation: Compound metabolized
[5]
  Bacterial Biotransformation: Compound metabolized
[6]
  Bacterial Biotransformation: Compound NOT metabolized
[7]
  Bacterial Biotransformation: Compound metabolized
[8]
  Bacterial Biotransformation: Compound NOT metabolized
[9]
  Bacterial Biotransformation: Compound metabolized
[10]
  Bacterial Biotransformation: Compound metabolized
[11]
  Bacterial Biotransformation: Compound metabolized
[12]
  Bacterial Biotransformation: Compound NOT metabolized
[13]
  Bacterial Biotransformation: Compound metabolized
[14]
  Bacterial Biotransformation: Compound metabolized
[15]
  Bacterial Biotransformation: Compound metabolized
[16]
  Bacterial Biotransformation: Compound NOT metabolized
[17]
  Bacterial Biotransformation: Compound NOT metabolized
[18]
  Bacterial Biotransformation: Compound metabolized
[19]
  Bacterial Biotransformation: Compound metabolized
[20]
  Bacterial Biotransformation: Compound NOT metabolized

## Cc1ccc(S(=O)(=O)NC(=O)NN2CCCCCC2)cc1 [TOLAZAMIDE]
[1]
  Bacterial Biotransformation: Compound NOT metabolized
[2]
  Bacterial Biotransformation: Compound metabolized
[3]
  Bacterial Biotransformation: Compound metabolized
[4]
  Bacterial Biotransformation: Compound metabolized
[5]
  Bacterial Biotransformation: Compound metabolized
[6]
  Bacterial Biotransformation: Compound NOT metabolized
[7]
  Bacterial Biotransformation: Compound metabolized
[8]
  Bacterial Biotransformation: Compound NOT metabolized
[9]
  Bacterial Biotransformation: Compound metabolized
[10]
  Bacterial Biotransformation: Compound metabolized
[11]
  Bacterial Biotransformation: Compound metabolized
[12]
  Bacterial Biotransformation: Compound metabolized
[13]
  Bacterial Biotransformation: Compound metabolized
[14]
  Bacterial Biotransformation: Compound metabolized
[15]
  Bacterial Biotransformation: Compound metabolized
[16]
  Bacterial Biotransformation: Compound metabolized
[17]
  Bacterial Biotransformation: Compound NOT metabolized
[18]
  Bacterial Biotransformation: Compound metabolized
[19]
  Bacterial Biotransformation: Compound metabolized
[20]
  Bacterial Biotransformation: Compound metabolized

## CN/C(=N/CCSCc1nc[nH]c1C)NC#N [CIMETIDINE]
[1]
  Bacterial Biotransformation: Compound NOT metabolized
[2]
  Bacterial Biotransformation: Compound metabolized
[3]
  Bacterial Biotransformation: Compound NOT metabolized
[4]
  Bacterial Biotransformation: Compound metabolized
[5]
  Bacterial Biotransformation: Compound metabolized
[6]
  Bacterial Biotransformation: Compound NOT metabolized
[7]
  Bacterial Biotransformation: Compound NOT metabolized
[8]
  Bacterial Biotransformation: Compound NOT metabolized
[9]
  Bacterial Biotransformation: Compound NOT metabolized
[10]
  Bacterial Biotransformation: Compound NOT metabolized
[11]
  Bacterial Biotransformation: Compound metabolized
[12]
  Bacterial Biotransformation: Compound NOT metabolized
[13]
  Bacterial Biotransformation: Compound metabolized
[14]
  Bacterial Biotransformation: Compound NOT metabolized
[15]
  Bacterial Biotransformation: Compound metabolized
[16]
  Bacterial Biotransformation: Compound metabolized
[17]
  Bacterial Biotransformation: Compound NOT metabolized
[18]
  Bacterial Biotransformation: Compound metabolized
[19]
  Bacterial Biotransformation: Compound NOT metabolized
[20]
  Bacterial Biotransformation: Compound NOT metabolized

## COc1c(C)c2c(c(O)c1C/C=C(\C)CCC(=O)OCCN1CCOCC1)C(=O)OC2 [MYCOPHENOLATE MOFETIL]
[1]
  Bacterial Biotransformation: Compound NOT metabolized
[2]
  Bacterial Biotransformation: Compound metabolized
[3]
  Bacterial Biotransformation: Compound metabolized
[4]
  Bacterial Biotransformation: Compound metabolized
[5]
  Bacterial Biotransformation: Compound metabolized
[6]
  Bacterial Biotransformation: Compound metabolized
[7]
  Bacterial Biotransformation: Compound metabolized
[8]
  Bacterial Biotransformation: Compound metabolized
[9]
  Bacterial Biotransformation: Compound metabolized
[10]
  Bacterial Biotransformation: Compound metabolized
[11]
  Bacterial Biotransformation: Compound metabolized
[12]
  Bacterial Biotransformation: Compound metabolized
[13]
  Bacterial Biotransformation: Compound NOT metabolized
[14]
  Bacterial Biotransformation: Compound metabolized
[15]
  Bacterial Biotransformation: Compound metabolized
[16]
  Bacterial Biotransformation: Compound metabolized
[17]
  Bacterial Biotransformation: Compound metabolized
[18]
  Bacterial Biotransformation: Compound metabolized
[19]
  Bacterial Biotransformation: Compound metabolized
[20]
  Bacterial Biotransformation: Compound metabolized

— ChEMBL document CHEMBL5724914, “Linking interpersonal differences in gut microbiota composition and drug biotransformation activity” (2024)
